Common to all, as to format: in vivo
The subject of assay [1] is Mäuse. Put plainly: Phenamin-induced hypermotility in actometer. The procedure: Eis wurde die Wirkung der beanspruchten Verbindung auf den durch Phenamin ausgelöston Effekt der Veränderung der Hypermotorik untersucht. Phenamin wurde den Mäusen intraperitoneal in Dosen von 3 und 5 mg/kg I0 Minuten nach der enteralen oder intraperitonealen Einführung der beanspruchten Verbindung und des Pyrazetams eingeführt. Die Tiere wurden in der Kammer des photoelektrischen Aktometers untergebracht. Die motorische Aktivität wurde nach der Zahl der Impulse innerhalb von 60 Minuten bestimmt. Die Angaben sind in der Tabelle 6 angeführt.

Assay [2] has as its system Mäuse. As to the kind of experiment: Strophantin toxicity (arrhythmia), time to death. The source says: Unter Berücksichtigung der Tatsache, dass einige Verbindungen, die ähnlich mit der erfindungsgemässen Verbindung eine sedative Wirkung besitzen, als symptomatische Mittel zur Behandlung von verschiedenen Arrhythmienarten angewendet werden können, wurde der Einfluss der erfindungsgemässen Verbindung auf die toxischen Strophantin-Effekte geprüft, die mit der Herzrhythmusstörung verbunden sind. Dazu wurde bei weissen Mäusen (die Gruppe aus I0 Tieren) die Zeit des Todeseintritts bei der intravenösen Einführung von Strophantin (0,0I%ige wässrige Lösung) im einzelnen und in Kombination mit der neuen Verbindung und mit γ -Amino--β -phenylbuttersäurehydrochlorid bestimmt. Die Ergebnisse dieser Versuche sind in der Tabelle 25 angeführt.

For assay [3], the system named is Mäuse. Put plainly: Hemic hypoxia by intraperitoneal Natriumnitrit, survival. To be noted: Natriumnitrit 200 mg/kg i.p. 15 min after compound. The procedure:
Die gemische Hypoxie wurde durch die intraperitoneale und subkutane Verabreichung von Natriumnitrit in einer Dosis von 200 mg/kg den Gruppen zu I0 […] I5 min nach der Einführung der Prüfverbindungen erzeugt. Die Angaben sind in der Tabelle I2 (bei der intraperitonealen Einführung von Natriumnitrit) und Tabelle I3 (bei der subkutanen Einführung von Natriumnitrit) angeführt.

Assay [4] relates to Mäuse. As to the kind of experiment: Hypoxia in hermetically closed vessel, survival. To be noted: closed vessel 80 cm³. The source says: Nach der zweiten Methode wurden die Mäuse in einem hermetisch verschlossenen Gefäss von 80 cm³ Inhalt untergebracht, dabei wurde die Luft nicht abgesaugt, und es wurden keine CO₂-Sorptionsmittel zugegeben. Die Prüfverbindungen wurden I Stunde vor dem Beginn des Versuchs intraperitoneal eingeführt (siehe Tabelle II).

For the substance “γ -Amino- β -phenylbuttersäureorotat [Erfindungsgemässe Verbindung]”, the “Anzahl der Impulse im Aktometer innerhalb von 60 min” value was 1884±111 in assay [1] (50 mg/kg + Phenamin 5 mg/kg i.p. 10 min later), 1125±141 in assay [1] (75 mg/kg + Phenamin 5 mg/kg i.p. 10 min later), 812±62 in assay [1] (100 mg/kg + Phenamin 5 mg/kg i.p. 10 min later) and 811±98 in assay [1] (150 mg/kg + Phenamin 5 mg/kg i.p. 10 min later). For the same substance, the “Zeit des Todeseintritts” value in assay [2] (50 mg/kg + Strophantin 1,7 mg/kg i.v.) is 22,3 (8,9 - 35,6) min. The “Verlängerung der Zeit des Todeseintritts der Tiere” value in assay [2] (50 mg/kg, Strophantin) is recorded as 2,5 fache. For the same substance, the Überlebensdauer in assay [3] (50,0 mg/kg) is 33,8±1,2 min; in assay [3] (100,0 mg/kg), 53,1±4,1 min; in assay [3] (200,0 mg/kg) it was 46,8±2,7 min; in assay [4] (50,0 mg/kg i.p. 1 h before), 10,8±1,2 min; in assay [4] (100,0 mg/kg i.p. 1 h before) it was 15,2±1,4 min; in assay [4] (200,0 mg/kg i.p. 1 h before), 27,6±2,6 min.

For the origin of these results see patent EP0414895A1, “OROTATE OF $g(a)-AMINO-$g(b)-PHENYL-BUTYRIC ACID” (NAUCHNO-PROIZVODSTVENNOE OBIEDINENIE "BIOLAR", priority 1989, dated 1990).
